Test results reported in article PMC11363325, “A Novel Prodrug Strategy Based on Reversibly Degradable Guanidine Imides for High Oral Bioavailability and Prolonged Pharmacokinetics of Broad-Spectrum Anti-influenza Agents” (ACS Central Science, 2024).
Structures can show the parent of a compound that is named as a salt.

Tests used:
[1] = tested on: rgPR8(H275Y), A/Puerto Rico/8/1934 with the H275Y mutation in NA
[2] = tested on: A/Korea/2785/2009 (H1N1) with the H275Y mutation in NA (KR2785)
[3] = tested on: rgA/Korea/09/2009Δ53–60 with the H275Y mutation in NA (rgKR09)
[4] = tested on: rgA/Korea/09/2009Δ53–60(H275Y), A/H1N1(H275Y); design: species or system BALB/c mice; settings: mouse, in vivo, po, 10 mg/kg

Row | SMILES | EC50 [1] | EC50 [2] | EC50 [3] | survival rate [4] | resistance factor (RF), ratio of EC50 against rgPR8(H275Y) to wild-type rgPR8 [1]
1 | CCCCC1CC(=O)N(C(=N[C@H]2CC(C(=O)O)=C[C@@H](OC(CC)CC)[C@@H]2NC(C)=O)N2C(=O)CC(CCCC)C2=O)C1=O (stereo partly drawn) [OSC-GCDI(B)] | 3.41 ± 0.01 µM | 17.6 ± 2.9 µM | 12.9 ± 0.65 µM |  | 
2 | CCC(CC)O[C@@H]1C=C(C(=O)O)C[C@H](NC(=N)N)[C@H]1NC(C)=O [GOC·TFA, guanidino oseltamivir carboxylate] |  |  |  | all mice were eventually dead | 
3 | CCC(CC)O[C@@H]1C=C(C(=O)O)C[C@H](N=C(N2C(=O)C3CCC(C)CC3C2=O)N2C(=O)C3CCC(C)CC3C2=O)[C@H]1NC(C)=O (stereo partly drawn) [OSC-GCDI(CM)] | 1.2 ± 0.05 µM | 14 ± 5.15 µM | 4.43 ± 0.25 µM |  | 
4 | NC(=O)c1ncn([C@@H]2O[C@H](CO)[C@@H](O)[C@H]2O)n1 [RBV, Ribavirin, reference compound] | 16.4 ± 0.45 µM | 18.3 ± 1.3 µM | 15.79 ± 0.15 µM |  | 
5 | CCC(CC)O[C@@H]1C=C(C(=O)O)C[C@H](NC(=N)N)[C@H]1NC(C)=O [GOC, guanidino oseltamivir carboxylate, reference compound] | 0.09 ± 0.01 µM | 0.78 ± 0.01 µM | 0.11 ± 0.01 µM |  | 18.0
6 | CCC(CC)O[C@@H]1C=C(C(=O)O)C[C@H](N=C(N2C(=O)CC(C)(C)C2=O)N2C(=O)CC(C)(C)C2=O)[C@H]1NC(C)=O [OSC-GCDI(D)] | 1.52 ± 0.2 µM | 9.25 ± 2.4 µM | 4.37 ± 1.1 µM |  | 
7 | CCC(CC)O[C@@H]1C=C(C(=O)O)C[C@H](N=C(N2C(=O)CC(C)C2=O)N2C(=O)CC(C)C2=O)[C@H]1NC(C)=O (stereo partly drawn) [OSC-GCDI(M)] | 0.74 ± 0.05 µM | 4.61 ± 0.35 µM | 1.96 ± 0.15 µM |  | 
8 | CCC(CC)O[C@@H]1C=C(C(=O)O)C[C@H](N=C(N2C(=O)CCC2=O)N2C(=O)CCC2=O)[C@H]1NC(C)=O [OSC-GCDI(S)] | 0.99 ± 0.01 µM | 8.55 ± 2.15 µM | 2.2 ± 0.1 µM |  | 
9 | CCC(CC)O[C@@H]1C=C(C(=O)O)C[C@H](N=C(N2C(=O)c3ccccc3C2=O)N2C(=O)c3ccccc3C2=O)[C@H]1NC(C)=O [OSC-GCDI(P)] | 0.48 ± 0.01 µM | 4.61 ± 0.35 µM | 4.61 ± 0.05 µM |  | 
10 | CCC(CC)O[C@@H]1C=C(C(=O)O)C[C@H](N=C(N2C(=O)[C@H]3CCCC[C@H]3C2=O)N2C(=O)[C@H]3CCCC[C@H]3C2=O)[C@H]1NC(C)=O [OSC-GCDI(C)] | 0.49 ± 0.01 µM | 5.91 ± 0.85 µM | 3.7 ± 0.5 µM |  | 
11 | NC12CC3CC(CC(C3)C1)C2 [AMT, Amantadine, reference compound] | > 100 µM | > 100 µM | > 100 µM |  | 
12 | CCC(CC)O[C@@H]1C=C(C(=O)O)C[C@H](N=C(N2C(=O)[C@H]3CC=CC[C@H]3C2=O)N2C(=O)[C@H]3CC=CC[C@H]3C2=O)[C@H]1NC(C)=O [OSC-GCDI(Ce)] | 1.9 ± 0.1 µM | 13.22 ± 0.1 µM | 5.21 ± 0.02 µM |  | 
13 | CCC(CC)O[C@@H]1C=C(C(=O)O)C[C@H](N)[C@H]1NC(C)=O [OSC, oseltamivir carboxylate, reference compound] | 13.7 ± 2.7 µM | 56.61 ± 0.3 µM | 25.9 ± 0.65 µM |  | 274
